Article PMC3072440 (Chemical research in toxicology, 2010)
Like-named read-outs stand apart in the source and are kept apart here.

Columns and labels:
human P450 3A4 [1] = molecular target: T1, human P450 3A4 (Homo sapiens, UniProt P08684)
human P450 3A4 [2] = molecular target: T1, human P450 3A4; experiment: Effect on P450 3A4-catalyzed midazolam 1’-hydroxylation
CYP3A4 (P450 3A4) = CYP3A4 (P450 3A4) (Homo sapiens, UniProt P08684); experiment: Inhibition of P450 3A4-dependent midazolam 4-hydroxylation; conditions: human, pH 7.4, probe midazolam (0.1 mM), 4-hydroxylation
human P450 3A4 [3] = molecular target: T1, human P450 3A4; experiment: Spectral binding titration with purified P450 3A4; conditions: decreases in α and β bands monitored; up to 100 µM
human P450 1A1 = molecular target: T2, human P450 1A1 (Homo sapiens, UniProt P04798); experiment: Inhibition of P450 1A1-dependent EROD activity; type: biochemical
T2 sequence (P04798 1-512): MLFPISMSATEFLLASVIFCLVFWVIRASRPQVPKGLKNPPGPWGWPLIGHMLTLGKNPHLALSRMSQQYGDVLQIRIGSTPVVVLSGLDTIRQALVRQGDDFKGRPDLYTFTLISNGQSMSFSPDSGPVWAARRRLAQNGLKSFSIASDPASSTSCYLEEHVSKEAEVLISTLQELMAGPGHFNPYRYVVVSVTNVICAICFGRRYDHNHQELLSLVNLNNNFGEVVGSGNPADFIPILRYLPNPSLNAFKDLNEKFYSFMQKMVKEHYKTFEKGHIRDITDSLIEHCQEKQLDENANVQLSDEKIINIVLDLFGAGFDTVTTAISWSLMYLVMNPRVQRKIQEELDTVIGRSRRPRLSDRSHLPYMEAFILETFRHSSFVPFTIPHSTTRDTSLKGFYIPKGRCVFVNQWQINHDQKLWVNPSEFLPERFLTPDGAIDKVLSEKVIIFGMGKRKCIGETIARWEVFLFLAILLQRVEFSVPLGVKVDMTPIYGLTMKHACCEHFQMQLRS

human P450 2C9 [4] = molecular target: T3, human P450 2C9 (Homo sapiens, UniProt P11712); experiment: Inhibition of P450 2C9-dependent flurbiprofen 4’-hydroxylation
human P450 3A4 [5] = molecular target: T1, human P450 3A4; remark: listed apart in the source
human P450 2C9 [6] = molecular target: T3, human P450 2C9
human P450 1A2 = molecular target: T4, human P450 1A2 (Homo sapiens, UniProt P05177)
T4 sequence (P05177 1-516): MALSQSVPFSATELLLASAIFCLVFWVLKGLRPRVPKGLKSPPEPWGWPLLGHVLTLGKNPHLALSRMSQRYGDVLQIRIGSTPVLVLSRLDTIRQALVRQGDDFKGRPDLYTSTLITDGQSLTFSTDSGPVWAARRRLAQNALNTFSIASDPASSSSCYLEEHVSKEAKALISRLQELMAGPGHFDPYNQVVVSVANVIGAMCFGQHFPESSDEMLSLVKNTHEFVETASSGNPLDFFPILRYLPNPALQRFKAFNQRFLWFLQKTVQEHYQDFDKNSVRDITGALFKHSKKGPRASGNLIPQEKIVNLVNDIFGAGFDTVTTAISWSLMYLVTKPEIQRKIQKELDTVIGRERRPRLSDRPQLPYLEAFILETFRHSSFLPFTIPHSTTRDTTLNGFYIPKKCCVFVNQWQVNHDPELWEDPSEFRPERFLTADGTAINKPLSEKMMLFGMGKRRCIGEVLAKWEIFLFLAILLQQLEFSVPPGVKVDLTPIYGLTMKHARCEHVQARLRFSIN

human P450 1B1 = molecular target: T5, human P450 1B1 (Homo sapiens, UniProt Q16678); experiment: Inhibition of P450 1B1-dependent EROD activity; type: biochemical; conditions: read-out: inhibition of substrate oxidation by P450s (IC50), P450 1B1; 7-ethoxyresorufin O-deethylation, 2.5 µM substrate, bacterial membranes; means ± SD
T5 sequence (Q16678 1-543): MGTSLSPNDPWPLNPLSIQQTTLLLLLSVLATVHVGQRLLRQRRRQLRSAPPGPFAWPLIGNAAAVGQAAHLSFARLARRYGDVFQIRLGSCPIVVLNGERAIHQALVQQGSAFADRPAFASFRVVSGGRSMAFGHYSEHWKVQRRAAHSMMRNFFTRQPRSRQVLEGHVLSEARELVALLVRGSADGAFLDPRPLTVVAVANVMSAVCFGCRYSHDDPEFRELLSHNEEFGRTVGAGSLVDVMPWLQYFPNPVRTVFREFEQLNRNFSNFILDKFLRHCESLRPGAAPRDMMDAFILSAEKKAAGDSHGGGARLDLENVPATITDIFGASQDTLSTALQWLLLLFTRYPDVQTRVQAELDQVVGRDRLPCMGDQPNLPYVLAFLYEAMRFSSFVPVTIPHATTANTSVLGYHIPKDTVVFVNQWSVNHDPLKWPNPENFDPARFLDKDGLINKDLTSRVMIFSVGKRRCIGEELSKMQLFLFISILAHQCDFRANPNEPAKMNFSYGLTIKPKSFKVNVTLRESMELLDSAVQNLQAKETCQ

human P450 3A4 [7] = molecular target: T1, human P450 3A4; experiment: Inhibition of P450 3A4-dependent midazolam 4-hydroxylation

T1 sequence (P08684 whole entry): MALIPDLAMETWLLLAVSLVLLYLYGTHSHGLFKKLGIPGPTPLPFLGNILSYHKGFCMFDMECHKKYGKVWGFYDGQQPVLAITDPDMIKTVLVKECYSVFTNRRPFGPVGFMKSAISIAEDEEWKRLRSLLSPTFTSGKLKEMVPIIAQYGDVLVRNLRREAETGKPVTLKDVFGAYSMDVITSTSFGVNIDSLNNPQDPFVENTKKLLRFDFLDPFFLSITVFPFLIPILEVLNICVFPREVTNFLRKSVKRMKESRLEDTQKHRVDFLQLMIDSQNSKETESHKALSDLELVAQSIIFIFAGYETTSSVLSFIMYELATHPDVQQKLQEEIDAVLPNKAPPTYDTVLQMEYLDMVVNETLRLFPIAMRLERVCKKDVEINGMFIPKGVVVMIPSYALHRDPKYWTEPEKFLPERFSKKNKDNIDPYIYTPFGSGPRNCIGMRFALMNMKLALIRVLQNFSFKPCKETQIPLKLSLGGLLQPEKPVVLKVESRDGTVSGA
T3 sequence (P11712 whole entry): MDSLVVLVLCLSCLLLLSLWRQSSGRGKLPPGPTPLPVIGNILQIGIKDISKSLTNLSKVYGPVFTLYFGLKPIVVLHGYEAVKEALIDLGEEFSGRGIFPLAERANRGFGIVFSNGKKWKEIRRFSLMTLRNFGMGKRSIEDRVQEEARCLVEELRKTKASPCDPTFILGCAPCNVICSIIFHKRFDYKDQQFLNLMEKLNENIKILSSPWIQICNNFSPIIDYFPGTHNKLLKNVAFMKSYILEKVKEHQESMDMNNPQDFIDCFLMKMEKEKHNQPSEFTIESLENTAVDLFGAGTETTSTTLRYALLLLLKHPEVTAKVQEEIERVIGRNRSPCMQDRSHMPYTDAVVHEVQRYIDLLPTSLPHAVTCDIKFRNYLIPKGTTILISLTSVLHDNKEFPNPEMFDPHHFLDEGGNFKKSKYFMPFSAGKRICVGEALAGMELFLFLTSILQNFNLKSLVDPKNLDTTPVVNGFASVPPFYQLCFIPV
Chain of CYP3A4 (P450 3A4) (P08684 whole entry): as the sequence (P08684 whole entry) above

## O=C1CC(c2ccccc2)Oc2ccccc21 (centres unmarked) [flavanone]
Human P450 3A4 [1]
  inhibition of P450 3A4 midazolam 4-hydroxylation, in words: inhibited the formation of 4-hydroxymidazolam
Human P450 3A4 [2]
  effect on formation of 1’-hydroxymidazolam by P450 3A4, in words: enhanced the formation of 1’-hydroxymidazolam

## COc1cccc(-c2cc(=O)c3c(O)cc(O)cc3o2)c1 [3’M57DHF, 3’-methoxy-5,7-dihydroxyflavone]
CYP3A4 (P450 3A4)
  IC50: 16000 nM
Human P450 3A4 [3]
  spectral change / Type I binding spectra with P450 3A4, in words: induced spectral changes
Human P450 1A1
  IC50: 5800 nM
Human P450 2C9 [4]
  inhibition of P450 2C9 flurbiprofen 4’-hydroxylation, in words: strong inhibitors

## O=c1cc(-c2ccc(O)cc2)oc2cc(O)cc(O)c12 [4’57THF, 4’5,7-trihydroxyflavone]
Human P450 3A4 [1]
  inhibition of P450 3A4 midazolam 4-hydroxylation, in words: significantly inhibited
Human P450 3A4 [5]
  effect on formation of 1’-hydroxymidazolam by P450 3A4, in words: slightly activated

## O=c1cc(-c2ccccc2)oc2cc(O)cc(O)c12 [57DHF, 5,7-dihydroxyflavone]
Human P450 2C9 [6]
  inhibition of P450 2C9 flurbiprofen 4’-hydroxylation, in words: strong inhibitors
Human P450 2C9 [4]
  IC50: 800 ± 140 nM

## COc1ccc(-c2cc(=O)c3c(O)cc(O)cc3o2)cc1OC [3’4’DM57DHF, 3’4’-dimethoxy-5,7-dihydroxyflavone]
Human P450 1A2
  IC50: 11 ± 3 nM
Human P450 1B1
  IC50: 19 ± 3 nM
Human P450 3A4 [7]; ratio IC50 3A4 / IC50 1B1
  IC50 of P450 3A4 fold higher than that for P450 1B1: 2000 fold
Human P450 3A4 [7]; ratio IC50 3A4 / IC50 2C9
  IC50 of P450 3A4 fold higher than that of P450 2C9: 43 fold
Human P450 2C9 [6]
  IC50: 880 ± 210 nM
  inhibition of P450 2C9 flurbiprofen 4’-hydroxylation, in words: strong inhibitors
Human P450 1A1
  IC50: 72 ± 11 nM
